Results reported in patent US9649268B2, “Glucuronolactone derivatives as self-tanning substances” (MERCK PATENT GMBH, priority 2011, dated 2017).

Legend:
[1] = test system: histological explants from the lower abdomen tissue of a person; assay: Ex-vivo study on skin explants, chromametric measurement (ITA); set-up: species or system human; details: for Day 5 (ITA value): 30 μl on 5 consecutive days, 2 h
Method: 24 histological explants having an average diameter of 10 mm are prepared from the lower abdomen tissue of a person. The pieces of tissue are kept in BEM medium (BIO-EC's explants medium) at 37° C. in a humid atmosphere comprising 5% of CO2.
The tissue is divided into 8 batches of 3 explants each:
30 μl of the substance solutions are applied on 5 consecutive days using a round filter paper and left to act for 2 h. On days 0, 5 and 8, tissue sections with a thickness of 5 μm are prepared from the explants. These sections are investigated morphologically and measured chromametrically.
The colour measurements are carried out using a Minolta CR-300 Chroma-meter, and the L, a and b values are read off correspondingly on the instrument.
Principle of the Chromametric Measurement:
The following parameters are set:
In 1931, a test series was carried out by the CIE (Commision Internationale de L'Eclairage), where the “2-degree standard observer” was defined. A colour area is present here which is viewed at a viewing angle of 2 degrees. This viewing angle is used as standard in the chromametric measurement. • Irradiation source D65, corresponding to daylight • Region of the measurement: 3 mm • Parameters used: L* a* b*
The sample is placed on the bearing rail with the epidermis facing downwards. The irradiation is carried out from the underside through the area indicated (3 mm).
In the colorimetric determinations <<L a b>>, the L value determines the contrast of the skin. If the L value drops, the skin appears darker.
ITA is defined as arctan g[(L−50)/b]. If the ITA index increases, the skin appears paler.

[2] = Stability/odour of test formulations on storage; type: physicochemical; details: formulation with 5% active compound (mixture: 5% DHA + 1% compound Ia), stored at 40° C. for 8 weeks
Method: In order to compare the odour and stability of glucuronolactone, glucuronolactone acetonide of the formula (Ia), DHA and a combination in a formulation, 5 formulations are prepared: one without active compound as placebo, one with 5% of glucuronolactone, one with 5% of compound (Ia), one with 5% of DHA and one with 5% of DHA+1% of compound (Ia) (denoted by “active compound” in the recipe).
The following recipe is used:
Sources of Supply: (1) Sasol Germany GmbH, (2) Cognis GmbH, (3) Hansen&Rosenthal KG, (4) Merck KGaA/Rona®, (5) Alfa Aesar Preparation of the Formulations: […]
Heat phase A, heat phase B, prepare phase C on a magnetic stirrer (first introduce water, then add thickener), then homogenise phase C with phase B using an Ultra-Turrax and at the same time slowly add phase A. Subsequently add phase D and likewise homogenise well.
In the case of the 5th cream (with DHA and glucuronolactone acetonide), adjust the water proportion correspondingly.

[3] = Colouring test on merino wool balls; details: 1 mmol in 100 ml buffer (pH 7)/ethylene glycol 6/94, RT, 24 h, then washed and dried
Method: 1 mmol of each of DHA and the glucuronolactone derivatives are weighed out into a 100 ml conical flask with ground-glass joint:
(2) Glucuronolactone: 176 mg
(3) Compound (Ia): 216 mg
(4) Compound (Ic): 264 mg
A merino wool ball with the size of a grape and a magnetic stirrer are then added to each conical flask.
A mixture of 6% by vol. of buffer (ph7) and 94% by vol. of ethylene glycol is then prepared, 100 ml of this mixture are added to each conical flask and stirred at RT for 24 h.
After 24 h, the wool balls are washed firstly with water, then with warm washing-powder solution and again with water and dried.
This colouring result can also be applied to hair, since merino wool, like hair, is built up from proteins (keratins) and the outermost layer is in each case the cuticle.

[4] = Liquid skin model (reaction with L-lysine, L*a*b* values); details: after 24 hours; for L* / a* / b*: 1 mmol compound + 1 mmol L-lysine, phosphate-buffered water (pH=7)/ethylene glycol
Method: The mixture is subsequently made up to the mark with a mixture of 6 ml of phosphate-buffered water (pH=7) and 94 ml of ethylene glycol. The reaction is observed with vigorous stirring, and the L*a*b* values are determined after 24 hours.

Structure (SMILES) | Day 5 (ITA value) ([1]; 1% solution) [%] | Day 5 (ITA value) ([1]; 4% solution) [%] | colour effect ([1]; identical concentration in the test formulation) | odour of the formulation [2] | colouration of wool samples compared with the untreated sample [3] | L* [4] | a* [4] | b* [4] | L values compared with erythrulose (darker colour) [4] | melting point [°C]
CC1(C)OC2OC3C(O)C(=O)OC3C2O1 (stereo not shown) [Compound Ia, glucuronolactone acetonide] | −2 | −5 | comparable to erythrulose | produce no odour | yellow colouration | 82.6 | 29.4 | 103.7 | lower L values than erythrulose | 
COc1cc(C2OC3OC4C(O)C(=O)OC4C3O2)ccc1O [Compound Ig, 1,2-O—(R,S)-(4-hydroxy-3-methoxybenzylidene)-α-D-glucofuranurono-6,3-lactone] |  |  |  |  |  | 80.9 | 32.0 | 100.0 | lower L values than erythrulose | 82
O=C1OC2C3OC(c4ccccc4)OC3OC2C1O [Compound Ic, 1,2-O—(R,S)-(Benzylidene)-α-D-glucofuranurono-6,3-lactone] |  |  |  |  | yellow colouration | 68.0 | 55.2 | 109.6 | lower L values than erythrulose | 
O=C[C@H](O)[C@H]1OC(=O)[C@@H](O)[C@H]1O [Glucuronolactone] | −3 |  |  | produce no odour | no colouration | 96.1 | 4.3 | 45.9 |  | 
COC1OC2C(O)C(=O)OC2C1O (stereo not shown) [Compound Ib] |  |  |  |  |  | 81.1 | 30.8 | 103.8 | lower L values than erythrulose | 
COc1ccc(C2OC3OC4C(O)C(=O)OC4C3O2)cc1 [Compound Ie, 1,2-O—(R,S)-(4-Methoxybenzylidene)-α-D-glucofuranurono-6,3-lactone] |  |  |  |  |  | 76.4 | 39.1 | 106.7 | lower L values than erythrulose | 
O=C(CO)[C@H](O)CO [Erythrulose, reference compound] |  | −5 |  |  |  | 92.6 | 4.8 | 35.8 |  | 
O=C(CO)CO [DHA, 1,3-dihydroxyacetone, reference compound] | −15 |  |  | developed the typical DHA odour | no colouration | 46.7 | 27.2 | 69.4 |  | 
